According to patent US20070093520A1, “Method of treatment of diarrhea-predominant irritable bowel syndrome in a subject” (priority 2005, published 2007):

Tested on: diarrhea-predominant IBS subjects
Experiment: 3007 Study: open-label 52-week safety study, adverse events and withdrawals
Details: Cilansetron 2 mg/Cilansetron 2 mg

Cc1nccn1C[C@H]1CCc2c(c3cccc4c3n2CCC4)C1=O [cilansetron, (R)-(−)-4,5,6,8,9,10-hexahydro-10-[(2-methyl-1H-imidazol-1-yl)methyl]-11H-pyrido-[3,2,1-jk]-carbazol-11-one]
0 n (%): TEAE: Inguinal Hernia NOS | TEAE: Inguinal Hernias | TEAE: Kidney Infection NOS | TEAE: Limb Discomfort NOS | TEAE: Lip and Palate Disorders NEC | TEAE: Liver Function Tests NOS Abnormal | TEAE: Lower Limb Fracture NOS | TEAE: Movement Disorder NOS | TEAE: Muscle Infections and Inflammations | TEAE: Musculoskeletal and Soft Tissue Imaging Procedures | TEAE: Myasthenia Gravis | TEAE: Myeloradiculopathy | TEAE: Myositis | TEAE: Nail Fungal Infection NOS | TEAE: Neuromuscular Junction Dysfunction | TEAE: Osteopenia | TEAE: Otitis Media NOS | TEAE: Popliteal Bursitis | TEAE: Proctalgia | TEAE: Pruritus Ani | TEAE: Rectal Disorder NOS | TEAE: Rectal Tenesmus | TEAE: Red Blood Cells Urine | TEAE: Renal Bruit | TEAE: Rheumatoid Arthritis | TEAE: Rheumatoid Arthritis Aggravated | TEAE: Rheumatoid Arthropathies | TEAE: Rotator Cuff Syndrome | TEAE: Sinusitis Acute NOS | TEAE: Skin Infection NOS | TEAE: Sleep Apnoea Syndrome | TEAE: Sleep Apnoeas | TEAE: Speech and Language Abnormalities | TEAE: Spinal Cord and Nerve Root Disorders NEC | TEAE: Spondylitic Myelopathy | TEAE: Stomach Discomfort | TEAE: Tendon Disorders | TEAE: Tendonitis | TEAE: Tinea Cruris | TEAE: Trigger Finger
24 (9%) n (%): TEAE: Sinusitis NOS
5 (2%) n (%): TEAE: Intervertebral Disc Disorders NEC | TEAE: Migraine Headaches | TEAE: Migraine NOS | TEAE: Muscle Strain | TEAE: Non-Site Specific Injuries NEC | TEAE: Streptococcal Infections
41 (16%) n (%): TEAE: Nervous System Disorders
12 (5%) n (%): TEAE: Liver Function Analyses
4 (2%) n (%): TEAE: Intervertebral Disc Herniation | TEAE: Intestinal Haemorrhages | TEAE: Metabolism Tests NEC | TEAE: Neurological Signs and Symptoms NEC | TEAE: Osteoarthropathies | TEAE: Pharyngitis Streptococcal | TEAE: Rectal Haemorrhage
1 (<1%) n (%): TEAE: Intervertebral Disc Disorder NOS | TEAE: Intraocular Pressure Increased | TEAE: Irritable Bowel Syndrome | TEAE: Joint Related Disorders NEC | TEAE: Joint Sprain | TEAE: Joint Swelling | TEAE: Ligament Sprain | TEAE: Limb Injuries NEC (Incl Traumatic Amputation) | TEAE: Localised Infection | TEAE: Localised Osteoarthritis | TEAE: Loss of Consciousness | TEAE: Lower Limb Fractures and Dislocations | TEAE: Memory Loss (Excl Dementia) | TEAE: Monoarthritis | TEAE: Monocyte Count Decreased | TEAE: Muscle Spasms | TEAE: Muscle Tone Abnormalities | TEAE: Musculoskeletal Chest Pain | TEAE: Myalgia | TEAE: Mycoplasma Infections | TEAE: Nail Infection NOS | TEAE: Neck Pain | TEAE: Night Cramps | TEAE: Nitrite Urine Present | TEAE: Non-Accidental Overdose | TEAE: Ophthalmic Function Diagnostic Procedures | TEAE: Oral Dryness and Saliva Altered | TEAE: Overdoses | TEAE: Paraesthesias and Dysaesthesias | TEAE: Parkinson's Disease NOS | TEAE: Parkinson's Disease and Parkinsonism | TEAE: Periorbital Haematoma | TEAE: Peripheral Swelling | TEAE: Pneumonia Mycoplasmal | TEAE: Pneumonia NOS | TEAE: Post Procedural Discomfort | TEAE: Rectal Cramps | TEAE: Red Blood Cell Analyses | TEAE: Renal Function Analyses | TEAE: Reproductive Organ and Breast Histopathology Procedures | TEAE: Respiratory Tract Infection NOS | TEAE: Rib Fracture | TEAE: Road Traffic Accident | TEAE: Seizures and Seizure Disorders NEC | TEAE: Skin Fungal Infection NOS | TEAE: Skin Structures and Soft Tissue Infections | TEAE: Somnolence | TEAE: Spondyloarthropathies | TEAE: Spondylosis | TEAE: Staphylococcal Infection NOS | TEAE: Staphylococcal Infections | TEAE: Status Epilepticus | TEAE: Streptococcal Infection NOS | TEAE: Stress Fracture | TEAE: Temporomandibular Joint Disorder NOS | TEAE: Tension Headaches | TEAE: Thoracic Cage Fractures and Dislocations | TEAE: Tinea Infections | TEAE: Tinea Pedis | TEAE: Tongue Coated | TEAE: Tongue Signs and Symptoms | TEAE: Tooth Disorder NOS | TEAE: Tooth Impacted | TEAE: Tooth Infection | TEAE: Transient Global Amnesia | TEAE: Tremor | TEAE: Tremor (Excl Congenital) | TEAE: Umbilical Hernia NOS | TEAE: Umbilical Hernias
3 (1%) n (%): TEAE: Irritable Bowel Syndrome Aggravated | TEAE: Laceration | TEAE: Neutrophil Count Decreased | TEAE: Non-Site Specific Procedural Complications | TEAE: Osteoarthritis Aggravated | TEAE: Sinus Headache
56 (22%) n (%): TEAE: Musculoskeletal and Connective Tissue Disorders
2 (<1%) n (%): TEAE: Intervertebral Disc Degeneration NOS | TEAE: Limb Injury NOS | TEAE: Lymphocyte Count Increased | TEAE: Metabolic Bone Disorders | TEAE: Mineral and Electrolyte Analyses | TEAE: Monocyte Count Increased | TEAE: Mononeuropathies | TEAE: Muscle Pains | TEAE: Osteoporosis NOS | TEAE: Pain in Limb | TEAE: Plantar Fasciitis | TEAE: Post Procedural Pain | TEAE: Protein Urine Present | TEAE: Soft Tissue Disorders NEC | TEAE: Tissue Enzyme Analyses NEC | TEAE: Toothache
220 (86%) n (%): TEAE: Total Number of Subjects with at Least One TEAE
77 (30%) n (%): TEAE: Investigations
6 (2%) n (%): TEAE: Muscle, Tendon and Ligament Injuries | TEAE: Site Specific Injuries NEC | TEAE: Tooth Abscess | TEAE: Triglyceride Analyses
106 (41%) n (%): TEAE: Infections and Infestations
19 (7%) n (%): TEAE: Musculoskeletal and Connective Tissue Signs and Symptoms NEC | TEAE: Nausea and Vomiting Symptoms | TEAE: Skeletal and Cardiac Muscle Analyses
11 (4%) n (%): TEAE: Influenza | TEAE: Influenza Viral Infections | TEAE: Joint Related Signs and Symptoms
9 (4%) n (%): TEAE: Muscle Related Signs and Symptoms NEC
15 (6%) n (%): TEAE: Nausea
21 (8%) n (%): TEAE: Lower Respiratory Tract and Lung Infections
26 (10%) n (%): TEAE: Injury, Poisoning and Procedural Complications
8 (3%) n (%): TEAE: Muscle Cramps | TEAE: Physical Examination Procedures
18 (7%) n (%): TEAE: Nasopharyngitis | TEAE: Rhinoviral Infections
